This passage reports AC50 results from PubChem BioAssay AID504539 (Broad Institute, 2011).

For the experiment, the system named is Cell-based prion protein 5' UTR reporter, plate reader. The experiment in a line: prion protein 5' UTR mRNA inhibitors – cell-based, plate reader, cherry-picked samples, dose response (AID 504539).
With `COc1cc(C2c3[nH]c4ccccc4c3CC3COC(=O)N32)cc(OC)c1O` (stereo not drawn), the half-maximal activity concentration (AC50) (as a rule, the midpoint of the concentration-response curve, whichever way the signal moves) is 270 nM.

On to `CCSc1nc(-c2ccccc2)nc(C(Cl)Cl)n1`, for which the AC50 was 1060 nM.

On to `CCC1CN2CCc3cc(OC)c(OC)cc3C2CC1CC1NCCc2c1[nH]c1ccc(O)cc21` (stereo not drawn), for which the AC50 is 216 nM.

For `CC(C)CCCCCCCCCCCCC(=O)NCC(=O)NC1C(C)OC(Nc2ncnc3nc[nH]c23)C(O)C1O` (stereo not drawn), the AC50 was 73 nM.

`COC1C(O)C(C)OC(OC2CCC3(C)C(CCC4C3C(O)CC3(C)C(C5=CC(=O)OC5)CCC43O)C2)C1O` (stereo not drawn): the AC50 is 150 nM.

For `c1ccc(-c2noc(-c3ccc4ccccc4c3)n2)nc1`, the AC50 was 158 nM.

Regarding `CN(C)c1ccc(NC(=S)c2ccccn2)cc1`, the AC50 is 222 nM.

In the case of `c1ccc(-c2noc(-c3ccc4c(c3)OCO4)n2)nc1`, the half-maximal activity concentration (AC50) is 140 nM.

As for `CN(C)c1ccc2c(c1)OC(N)=C(C#N)C2c1cccc(F)c1` (stereo not drawn), the AC50 is 179 nM.

As to `CC(C)(O)/C=C/C(=O)[C@](C)(O)C1[C@H](O)C[C@@]2(C)C3CC=C4C(C[C@H](O)[C@@H](O)C4(C)C)[C@]3(C)C(=O)C[C@]12C` (stereo partly drawn), the AC50 is 900 nM.

For `COc1ccccc1C(=O)Nc1nc2ccccc2[nH]1`, the AC50 was 178 nM.

Consider `C=CCn1c(C)cc(C2=NNC(=NCC)SC2)c1C`, for which the half-maximal activity concentration (AC50) is less than 38 nM.

`N#CC1=C(N)Oc2c(ccc3ccccc23)C1c1ccsc1` (stereo not drawn): the AC50 is 831 nM.

As for `CCCCCN1C=CC(=C2C(=O)c3ccccc3C2=O)C=C1`, the AC50 was 248 nM.

For the compound `O=C(CN1C(=O)c2ccccc2S1(=O)=O)c1ccc(Cl)cc1Cl`, the AC50 was 181 nM.

Consider `CCC(=O)Nc1cc2nn(-c3ccc(C)cc3)nc2cc1C`, for which the AC50 was 465 nM.

As to `Cc1ccc2oc(/N=C(\N)NC(=O)C(C)(C)C)nc2c1`, the AC50 is less than 38 nM.

Regarding `Cn1cccc1/C=C1\SC(=Nc2ccc(O)cc2)NC1=O`, the AC50 was 630 nM.

Take `CN(C)c1ccc(/C=N/Nc2cccc(C(=O)O)c2)cc1`: the concentration at half-maximal activity (AC50) was 547 nM.

Consider `Nc1ncnc2c(C3OC(CO)C(O)C3O)scc12` (stereo not drawn), for which the AC50 is 2450 nM.

On to `Cc1nc2ncccn2c1-c1csc(Nc2ccc(N(C)C)cc2)n1`, for which the AC50 is 168 nM.

With `O=c1oc2ccccc2cc1-c1cn(-c2ccccc2)c(=S)[nH]1`, the AC50 was 776 nM.

`O=C1NC2C(=CC(O)C(O)C2O)c2cc3c(c(O)c21)OCO3` (stereo not drawn): the AC50 was 205 nM.

For `CC(C)(O)/C=C/C(=O)C(C)(O)C1C(O)CC2(C)C3CC=C4C(C=C(O)C(=O)C4(C)C)C3(C)C(=O)CC12C` (stereo not drawn), the AC50 was 104 nM.

For `Cc1ccc(-n2[nH]c(=O)c(-c3ccccn3)c2C)cc1`, the AC50 is 368 nM.

On to `Cc1ccc(C(=O)c2cc([N+](=O)[O-])ccc2N2CCCCC2)cc1`, for which the AC50 was 848 nM.

In the case of `Cc1ccc(Nc2nc(-c3c(C)nc4ncccn34)cs2)cc1`, the AC50 was 168 nM.

For the compound `O=C(Nc1ccc(N2CCOCC2)cc1)c1cnsn1`, the AC50 was 486 nM.

In the case of `C[C@]12CCC3C(CCC4=CC(O)CC[C@@]43/C=N/O)C1(O)CCC2C1=CC(=O)OC1` (stereo partly drawn), the concentration at half-maximal activity (AC50) is 308 nM.

Regarding `COC(=O)c1cc(C(=O)N2CCN(c3cccc(Cl)c3)CC2)cc([N+](=O)[O-])c1`, the AC50 is 470 nM.

Regarding `CCN1C=CC(=C2C(=O)c3ccccc3C2=O)C=C1`, the AC50 was 89 nM.

Take `O=C(c1ccc(Cl)cc1)N1CCCCC(Sc2nnc(-c3ccc4c(c3)OCO4)o2)C1=O` (stereo not drawn): the AC50 was 419 nM.

Consider `COc1cc2c(c(OC)c1OC)-c1ccc(OC)c(=O)cc1[C@@H](N(C)CC#CCO)CC2`, for which the half-maximal activity concentration (AC50) is 235 nM.

As to `Cc1ccc(C(=O)O/N=C(\N)c2ccccn2)cc1`, the AC50 is 213 nM.

Take `Cc1nn(-c2ccccc2Cl)c(Cl)c1/C=N/Nc1nc2ccccc2s1`: the AC50 is less than 38 nM.

Consider `CC[C@@]1(O)C(=O)OCc2c1cc1n(c2=O)Cc2cc3c(NC(=O)CN)cccc3nc2-1`, for which the AC50 is 232 nM.

As to `Cc1cccc(C(=O)O/N=C(\N)c2ccccn2)c1`, the AC50 was 915 nM.

As for `CC(C)(C)c1ccc(Oc2ccc(N)cc2)cc1`, the concentration at half-maximal activity (AC50) is 248 nM.

Take `COc1ccc(CCc2cc(OC)c(OC)c(OC)c2)cc1`: the AC50 was 40 nM.

With `COc1ccc(C[C@H]2NC[C@H](O)[C@H]2OC(C)=O)cc1`, the AC50 is 378 nM.

Take `COc1cccc(NC(=O)Nc2cccc(C(=O)O)c2)c1`: the concentration at half-maximal activity (AC50) is 645 nM.

For the compound `COCCn1c(C)cc(C(=O)CSc2nnnn2C2CCCC2)c1C`, the AC50 is 1140 nM.

Consider `N#Cc1c(NC(=O)CSc2ncn[nH]2)sc2c1CCCCC2`, for which the half-maximal activity concentration (AC50) is 82 nM.

For the compound `COc1ccc(/C=N/NC(=O)c2cc3c(OC)ccc(OC)c3[nH]2)cc1O`, the AC50 is 1340 nM.

Take `COc1ccc(CC2NCC(O)C2OC(C)=O)cc1` (stereo not drawn): the concentration at half-maximal activity (AC50) was 168 nM.

Consider `O=C(O)c1ccc(N/N=C/c2ccc3nccnc3c2)cc1`, for which the half-maximal activity concentration (AC50) is 560 nM.

For the compound `CCCCCOC(=O)c1[nH]c2c(c1C)C(=O)CC(c1ccco1)C2` (stereo not drawn), the AC50 is 226 nM.

With `Cc1ccc(C(C)C)c(OCc2ccc(C(=O)N/N=C/c3cccc(O)c3O)cc2)c1`, the AC50 is 1510 nM.

In the case of `O=C(CN1C(=O)c2ccccc2S1(=O)=O)c1ccc2c(c1)OCCCO2`, the AC50 is 39 nM.

On to `Cc1ccc(C(=O)Nc2cnc3ccccc3c2)cc1`, for which the AC50 is 94 nM.

On to `O=c1c2ccccc2cnn1-c1nc2ccccc2[nH]1`, for which the AC50 is 185 nM.

Consider `CC(=Nc1ccccc1)C1=C(O)C(Cc2ccc(O)cc2)NC1=O` (stereo not drawn), for which the half-maximal activity concentration (AC50) was 379 nM.

`O=c1c2ccccc2cnn1CCOc1ccccc1`: the AC50 is 354 nM.

Turning to `CC(=O)OC(C)(C)/C=C/C(=O)[C@](C)(O)C1[C@H](O)C[C@@]2(C)C3CC=C4C(C[C@H](O)C(=O)C4(C)C)[C@]3(C)C(=O)C[C@]12C` (stereo partly drawn), the AC50 is less than 38 nM.

Consider `CC1CCCN(c2ccc([N+](=O)[O-])cc2C(=O)c2ccccc2)C1` (stereo not drawn), for which the AC50 is 1670 nM.

As to `Cc1ccc(-c2nc(-c3ccccn3)no2)cc1Cl`, the AC50 is 351 nM.

On to `COC1C(O)C(C)OC(OC2CCC3(C=O)C(CCC4C3CCC3(C)C(C5=CC(=O)OC5)CCC43O)C2)C1O` (stereo not drawn), for which the AC50 is less than 38 nM.

As to `Cc1nc(SCC(=O)Nc2nc3ccccc3s2)c(C#N)c(C)c1C`, the AC50 was less than 38 nM.

With `CC(=O)O[C@H]1C[C@@H]2OC3C=C(C)CCC3(C)[C@@]1(C)[C@@]21CO1` (stereo partly drawn), the half-maximal activity concentration (AC50) was 2070 nM.

Consider `O=C(Nc1cccc(C(=O)O)c1)Nc1ccc2c(c1)OCO2`, for which the AC50 is 397 nM.

`COC(=O)Cc1ccc(NC(=O)c2ccc(C(C)(C)C)cc2)cc1`: the AC50 was 414 nM.

Take `O=C(Nc1nc2ccccc2[nH]1)c1ccccc1F`: the AC50 is 210 nM.

On to `CC1=C(N2CC2)C(=O)C(CO)=C(N2CC2)C1=O`, for which the AC50 is 154 nM.

With `COc1ccc(C(=O)NN(C)c2nc(C(F)(F)F)nc3ccccc23)cc1`, the AC50 was 163 nM.

Consider `COC(=O)Cc1[nH]n(-c2nc3ccccc3s2)c(=O)c1C(C)=Nc1ccc(Cl)cc1`, for which the AC50 is 70 nM.

As for `CCOC(=O)C(C)Oc1cccc2c(=O)n(CC(=O)NCc3ccccc3)ccc12` (stereo not drawn), the concentration at half-maximal activity (AC50) is 919 nM.

On to `COc1ccc(-c2cc3nc(C)n(N)c(=O)c3s2)cc1`, for which the half-maximal activity concentration (AC50) was 113 nM.

For the compound `COc1ccc(-n2ncc3c(N(C)C4CCCCC4)ncnc32)cc1`, the AC50 is 1520 nM.

For the compound `COc1ccc(N=CC2=C(O)c3ccccc3C2=O)c(OC)c1`, the concentration at half-maximal activity (AC50) is 1170 nM.

For `CC(=O)O[C@H]1[C@H]2O[C@]23[C@@H]2CC[C@]4(O)C[C@@H](O)CC[C@]4(C)C2CC[C@]3(C)[C@H]1c1ccc(=O)oc1` (stereo partly drawn), the AC50 was 120 nM.

As to `COc1ccc(S(=O)(=O)N2c3cc(Cl)ccc3Oc3nc4ccccc4nc32)cc1`, the AC50 was 1350 nM.

As for `Cc1cc(C(=O)CN2C(=O)c3ccccc3S2(=O)=O)c(C)n1CC1CCCO1` (stereo not drawn), the AC50 is 271 nM.

Consider `COc1cc(OC)cc(-c2cc3nc(C)c(CCC(=O)O)c(C)n3n2)c1`, for which the AC50 was 1610 nM.

`Cc1cc([N+](=O)[O-])c2ccccc2[n+]1[O-]`: the AC50 was 256 nM.

Turning to `C=CCn1c(C)cc(C2=NNC(=NC(C)(C)C)SC2)c1C`, the concentration at half-maximal activity (AC50) was 714 nM.

`COC(=O)C1=C(C(=O)OC)SC2(S1)C(C(=O)OC)=C(C(=O)OC)Sc1c2ssc1=O`: the AC50 was 2620 nM.

In the case of `CC12CCC(O)CC1CCC1C2CCC2(C)C(C3=CC(=O)OC3)CCC12O` (stereo not drawn), the AC50 was 230 nM.

As to `N/C(=N\OC(=O)c1ccccc1Cl)c1ccccn1`, the AC50 is 558 nM.

Turning to `CCN1/C(=C\C=C\C2=[N+](CC)c3ccccc3C2(C)C)C(C)(C)c2ccccc21`, the AC50 was 924 nM.

With `CCOc1ccc(NC(=O)c2ccccn2)cc1`, the AC50 was 345 nM.

As for `Cc1nn(-c2nc3ccccc3[nH]2)c(=O)c2ccccc12`, the AC50 was 145 nM.

With `Cc1ccc2nc(NC(=O)c3ccccn3)sc2c1`, the concentration at half-maximal activity (AC50) is 220 nM.

Consider `COc1cc(-c2noc(C)c2/C=C/c2cccc([N+](=O)[O-])c2)cc(OC)c1OC`, for which the AC50 is 2540 nM.

For `Cc1ccc(/C=C2\SC(=S)N(CCCC(=O)NNC(=O)c3ccccc3O)C2=O)cc1`, the AC50 was 428 nM.

As for `NC(=O)c1cc([N+](=O)[O-])ccc1NCc1ccc(N)cc1`, the AC50 is 490 nM.

With `CCCCN=C[C@]12CCC(O)CC1(O)CCC1[C@@H]2CC[C@]2(C)[C@H](C3C=CC(=O)O3)CCC12O` (stereo partly drawn), the AC50 was 243 nM.

Consider `Cc1ccc(-c2cc3c(N=O)c4ccccc4c-3n[nH]2)cc1`, for which the AC50 was 438 nM.

Regarding `CCOc1ccccc1C1C2=C(COC2=O)Nc2cc3c(cc21)OCO3` (stereo not drawn), the AC50 was 1050 nM.

As for `CCn1c(C)cc(C(=O)CN2C(=O)c3ccccc3S2(=O)=O)c1C`, the AC50 was 1260 nM.

With `Cc1csc(NC(=O)CCc2c(C)nc3cc(-c4ccc(Cl)cc4)nn3c2C)n1`, the AC50 is 1160 nM.

Regarding `Cc1ccc(C(=O)NCCc2ccccc2)cc1`, the AC50 is 612 nM.

Regarding `CCCSc1ccc2nc(-c3ccccc3)cn2c1`, the AC50 was 487 nM.

As to `C=Cc1cc(OC)c2c(c1)c(=O)oc1c2cc(OC)c2c(O)ccc(C3OC(C)C(O)C(C)(O)C3O)c21` (stereo not drawn), the AC50 is 211 nM.

As for `Cc1nn(-c2ccccc2)c2c1CC(=O)Nc1ccccc1-2`, the concentration at half-maximal activity (AC50) was 1960 nM.

Take `Cc1ccc(C(=O)/C=C/Nc2ccccn2)cc1`: the AC50 was 233 nM.

For the compound `C[C@H]1CCC/C=C/[C@@H]2C[C@H](O)C[C@H]2[C@@H](O)/C=C/C(=O)O1`, the AC50 is less than 38 nM.

As to `O=C(NC1=NCCS1)C1COc2ccccc2O1` (stereo not drawn), the AC50 was 296 nM.

Take `COc1cc(C(=O)N2CCN(c3cc(Cl)ccc3Cl)CC2)cc(OC)c1OC`: the AC50 is 1120 nM.
